Patent publication US6867192B1, “Compounds useful in the treatment of inflammatory diseases” (priority 1998, dated 2005)

Columns and labels:
Solubility in water = assay type: physicochemical
[1] = test system: ovalbumin sensitised guinea pigs; experiment: Inhibition of eosinophil infiltration and hyper-reactivity in the guinea pig; assay type: in vivo; details: dose 200 μg/kg body weight i.t., positive control
Description: (3) Inhibition of Eosinophil Infiltration and Hyper-Reactivity in the Guinea Pig
In a method based on that described by Danahay et al., 1997, ovalbumin sensitised guinea pigs were dosed with mepyramine (30 mg kg^−1 ip) to protect against anaphylactic bronchospasm. Test compounds, dissolved in 0.9% saline, were given by the inhaled route (30 minutes breathing of an aerosol of the compound) or the intra-tracheal route, 30 minutes before and 6 hours after ovalbumin challenge (10 minutes breathing of an aerosol generated from a 0.5% solution of ovalbumin). Hyper-reactivity of the airways to the thromboxane mimetic U46619, was measured 24 hours after ovalbumin challenge in un-restrained animals using a whole body plethysmograph (Buxco Ltd., USA). The guinea pigs were then sacrificed and the lungs lavaged. Total and differential leukocyte counts were then obtained for the bronchoalveolar lavage fluid and the percentage reduction in eosinophil accumulation determined (Sanjar et al., 1992). Dexamethasone (200 μg kg^−1 i.t) was used as a positive control. Data was presented as the inhibitory effect of the specified dose expressed as a percentage of the vehicle control response.

[2] = biological target: T1, integrin VLA-4, expressed on the Jurkat J6 (human lymphoblast cell line) cell membrane with VCAM-1 (Homo sapiens, UniProt P05556+P13612); experiment: Jurkat J6/VCAM-1 adhesion assay; assay type: cell-based; details: Jurkat J6 cell adhesion to VCAM-1, 1 mM MnCl2; mean of n experiments
T1 construct: integrin VLA-4, expressed on the Jurkat J6 (human lymphoblast cell line) cell membrane; endogenous in cells; host or cells: Jurkat J6 cells (integrin). zzVCAM-1 was made in house in Drosophila melanogaster S2 cells
T1 sequence (P13612 34-1032): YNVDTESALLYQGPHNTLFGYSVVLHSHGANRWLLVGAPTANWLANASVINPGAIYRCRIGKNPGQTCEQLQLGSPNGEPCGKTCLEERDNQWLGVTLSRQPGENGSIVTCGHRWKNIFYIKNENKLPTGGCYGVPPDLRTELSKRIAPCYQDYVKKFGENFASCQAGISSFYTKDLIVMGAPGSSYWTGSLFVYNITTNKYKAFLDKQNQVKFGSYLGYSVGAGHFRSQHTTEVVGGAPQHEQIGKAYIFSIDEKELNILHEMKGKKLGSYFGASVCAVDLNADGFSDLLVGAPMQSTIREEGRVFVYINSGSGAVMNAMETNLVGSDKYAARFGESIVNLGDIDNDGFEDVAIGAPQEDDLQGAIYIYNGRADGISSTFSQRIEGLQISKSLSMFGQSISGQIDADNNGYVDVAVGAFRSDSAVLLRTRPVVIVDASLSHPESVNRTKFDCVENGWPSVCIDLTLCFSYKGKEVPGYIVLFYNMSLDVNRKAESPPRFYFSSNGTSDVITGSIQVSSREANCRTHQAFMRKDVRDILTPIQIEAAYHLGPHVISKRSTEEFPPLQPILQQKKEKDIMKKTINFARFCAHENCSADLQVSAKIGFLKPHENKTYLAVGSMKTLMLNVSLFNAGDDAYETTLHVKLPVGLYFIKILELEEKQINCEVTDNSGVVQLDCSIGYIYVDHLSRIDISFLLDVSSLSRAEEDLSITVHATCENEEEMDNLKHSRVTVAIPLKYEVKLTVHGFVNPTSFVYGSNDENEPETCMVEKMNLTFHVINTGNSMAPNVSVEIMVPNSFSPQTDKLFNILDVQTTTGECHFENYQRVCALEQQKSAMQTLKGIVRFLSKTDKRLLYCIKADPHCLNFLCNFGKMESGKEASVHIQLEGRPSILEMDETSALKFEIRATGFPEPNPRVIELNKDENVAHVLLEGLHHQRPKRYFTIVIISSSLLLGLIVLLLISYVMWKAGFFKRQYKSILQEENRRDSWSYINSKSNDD
T1 sequence (P05556 21-798): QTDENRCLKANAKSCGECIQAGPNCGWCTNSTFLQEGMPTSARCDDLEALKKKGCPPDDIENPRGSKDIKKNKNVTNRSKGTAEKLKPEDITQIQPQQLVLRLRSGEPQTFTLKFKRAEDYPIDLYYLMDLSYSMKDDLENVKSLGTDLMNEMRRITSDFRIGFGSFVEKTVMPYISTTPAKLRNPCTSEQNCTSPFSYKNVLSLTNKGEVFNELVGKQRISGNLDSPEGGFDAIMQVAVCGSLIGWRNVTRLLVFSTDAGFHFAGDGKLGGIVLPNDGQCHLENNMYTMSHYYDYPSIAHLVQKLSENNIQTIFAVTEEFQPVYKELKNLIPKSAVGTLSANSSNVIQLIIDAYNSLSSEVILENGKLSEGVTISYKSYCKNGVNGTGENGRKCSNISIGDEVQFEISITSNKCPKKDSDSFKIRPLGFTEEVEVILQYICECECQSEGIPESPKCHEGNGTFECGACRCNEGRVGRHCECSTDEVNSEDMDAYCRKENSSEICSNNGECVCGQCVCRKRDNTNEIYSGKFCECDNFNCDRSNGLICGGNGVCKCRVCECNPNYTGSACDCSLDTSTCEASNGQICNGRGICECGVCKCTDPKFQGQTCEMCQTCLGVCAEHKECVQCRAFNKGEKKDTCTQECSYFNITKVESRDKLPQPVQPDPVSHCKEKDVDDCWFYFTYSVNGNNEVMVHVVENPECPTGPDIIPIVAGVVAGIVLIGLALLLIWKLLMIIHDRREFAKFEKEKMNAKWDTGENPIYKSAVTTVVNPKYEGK
Procedure, shortened: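 Jurkat J6 cells loaded with BCECF-AM were added with compound in HBSS with 1 mM MnCl2 to plates coated with IgG-captured zzVCAM-1 (seven-domain, S2-expressed) and left to adhere for 30 min at 37 °C. After washing, fluorescence was read. pIC50 came from a four-parameter fit between no compound and 2 mM EDTA.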

Row | SMILES | IC50 [2] [nM] | also measured
1 | Cc1ccccc1OCC(=O)N[C@@H](CC(C)C)C(=O)N[C@@H](Cc1ccc(OC(=O)N2CCC(C(N)=O)CC2)cc1)C(=O)[O-].[K+] [Example 27A, (2S)-3-[4-({[4-(Aminocarbonyl)-1-piperidinyl]carbonyl}oxy)phenyl]-2-[((2S)-4-methyl-2-{[2-(2-methylphenoxy)acetyl]amino}pentanoyl)amino]propanoic acid potassium salt] |  | solubility (Solubility in water): > 250 mg/mL
2 | C[C@@H]1C[C@H]2[C@@H]3CCC4=CC(=O)C=C[C@]4(C)[C@@]3(F)[C@@H](O)C[C@]2(C)[C@@]1(O)C(=O)CO [Dexamethasone, reference compound] |  | inhibition in vivo at 0.2 mg/kg ([1]; Cavia porcellus, Eosinophil, inhaled or nasal, 24 h, airway hyper-reactivity to U46619): 80%; % Inhibition Eosinophil Accumulation [1]: 55%
3 | CC(C)C[C@H](NC(=O)COc1ccccc1C(C)(C)C)C(=O)N[C@@H](Cc1ccc(OC(=O)N2CCC(C(=O)NCc3ccc(F)cc3)CC2)cc1)C(=O)O [Example 34, (2S)-2-{[(2S)-2-({2-[2-(Tert-butyl)phenoxy]acetyl}amino)-4-methylpentanoyl]amino}-3-(4-{[(4-{[(4-fluorobenzyl)amino]carbonyl}-1-piperidinyl)carbonyl]oxy}phenyl)propanoic acid] | 26.9 | 
4 | CC(C)C[C@H](NC(=O)COc1ccccc1C(C)(C)C)C(=O)N[C@@H](Cc1ccc(OC(=O)N2CCC(C(N)=O)CC2)cc1)C(=O)O [Example 33, (2S)-3-[4-({[4-(Aminocarbonyl)-1-piperidinyl]carbonyl}oxy)phenyl]-2-{[(2S)-2-({2-[2-(tert-butyl)phenoxy]acetyl}amino)-4-methylpentanoyl]amino}propanoic acid] | 3.47 | 

More lines, main results first:

Row | IC50 [2] [nM] | SMILES | also measured
5 | 22.4 | CC(C)C[C@H](NC(=O)COc1ccc(Cl)cc1Cl)C(=O)N[C@@H](Cc1ccc(OC(=O)N2CCN(C(=O)c3ccccc3)CC2)cc1)C(=O)O [Example 22, (2S)-3-(4-{[(4-Benzoyl-1-piperazinyl)carbonyl]oxy}phenyl)-2-[((2S)-2-{[2-(2,4-dichlorophenoxy)acetyl]amino}-4-methylpentanoyl)amino]propanoic acid] | 
6 | 13.8 | CC(C)C[C@H](NC(=O)COc1ccccc1C(C)(C)C)C(=O)N[C@@H](Cc1ccc(OC(=O)N2CCC(NC(=O)Cc3ccccc3)CC2)cc1)C(=O)O [Example 51, (2S)-2-{[(2S)-2-({2-[2-(Tert-butyl)phenoxy]acetyl}amino)-4-methylpentanoyl]amino}-3-{4-[({4-[(2-phenylacetyl)amino]-1-piperidinyl}carbonyl)oxy]phenyl}propanoic acid] | 
